Data: PMC11882969 (Nature Communications, 2025)
Where “and” joins values, the source holds several entries; their conditions need not be identical. Identical values can stand only once.

What was measured:
[1] = biological target: panel of 320 non-olfactory GPCRs (Homo sapiens, UniProt P08172); type: cell-based
[2] = biological target: panel of 320 non-olfactory GPCRs (Homo sapiens, UniProt P08173); type: cell-based
[3] = biological target: panel of 320 non-olfactory GPCRs (Homo sapiens, UniProt P25089); type: cell-based
[4] = biological target: panel of 320 non-olfactory GPCRs (Homo sapiens, UniProt P25105); type: cell-based
[5] = biological target: panel of 320 non-olfactory GPCRs (Homo sapiens, UniProt P28335, I156V/I160V/N158G); type: cell-based
[6] = biological target: panel of 320 non-olfactory GPCRs (Homo sapiens, UniProt P30874); type: cell-based
[7] = biological target: panel of 320 non-olfactory GPCRs (Homo sapiens, UniProt P34969); type: cell-based
[8] = biological target: panel of 320 non-olfactory GPCRs (Homo sapiens, UniProt P47901); type: cell-based
[9] = biological target: panel of 320 non-olfactory GPCRs (Homo sapiens, UniProt P61073); type: cell-based
[10] = biological target: panel of 320 non-olfactory GPCRs (Homo sapiens, UniProt Q15761); type: cell-based
[11] = biological target: panel of 320 non-olfactory GPCRs (Homo sapiens, UniProt Q86SM5); type: cell-based
[12] = biological target: panel of 320 non-olfactory GPCRs (Homo sapiens, UniProt Q8TDV2); type: cell-based
[13] = biological target: panel of 320 non-olfactory GPCRs (Homo sapiens, UniProt Q9BXC1); type: cell-based
[14] = biological target: panel of 320 non-olfactory GPCRs (Homo sapiens, UniProt Q9BZJ8); type: cell-based
[15] = biological target: panel of 320 non-olfactory GPCRs (Homo sapiens, UniProt Q9P296); type: cell-based
[16] = biological target: panel of 320 non-olfactory GPCRs (Homo sapiens, UniProt Q9Y653); type: cell-based
mice [17] = assay: Catalepsy test, vertical wire mesh; type: in vivo, mouse
Procedure: Thirty min after an i.p. injection of the compounds, mice were placed on a vertical wire mesh and the latency to move all four paws was recorded.

mice [18] = system: mice
Procedure: For all behavioral tests, the experimenter was always blind to treatment. Animals were first habituated for 30-60 min in Plexiglas cylinders and then tested 30 min after i.p. or i.t. injection of the compounds. The thermal (Hargreaves, hotplate and tail flick) and ambulatory (rotarod) tests were conducted as described[96]. Briefly, hindpaw thermal sensitivity was measured with a radiant heat source (Hargreaves) or on a hotplate at 52 °C. For the tail flick assay, sensitivity was measured by immersing the tail into a 50 °C water bath. For the ambulatory (rotarod) test, before testing with any compound, mice underwent three trainings on three consecutive days until they reach 300 sec. Each training has three sessions of five min each. Therapeutic window was calculated as the ratio of the minimum dose of side effect phenotype to the minimum dose of analgesic phenotype.

hCB1 = hCB1 (Homo sapiens, UniProt P21554); assay: Radioligand competition binding at hCB1; set-up: host or cells: HEK293SL cells, transient PEI transfection; details: for radioligand binding, competition curve point (normalized): log[drug]
hCB2 = hCB2 (Homo sapiens, UniProt P34972); assay: Radioligand competition binding, HEK293 cells expressing human CB2R; set-up: expressed in transfected cells; host or cells: HEK293 cells stably expressing human CB2R (Laboratory of Ken Mackie); details: hCB2, log[drug], replicate columns
[19] = biological target: T1, CB1R with G protein (Gi1-3, Go) (Homo sapiens, UniProt P21554); assay: GTP turnover assay (GTPase-Glo); type: biochemical; details: replicates, sheet FigS3c
T1 construct: a N-terminal FLAG tag and C-terminal histidine tag was added to human full-length CB1; FLAG (N); histidine tag (C); made in house; host or cells: CB1R: Spodoptera frugiperda Sf9; G proteins: Trichoplusia ni Hi5
Procedure: Analysis of GTP turnover was performed by using a modified protocol of the GTPase-Glo^TM assay (Promega) described previously. Ligand-bound (10 μM ligand incubated for one hour at room temperature) or apo CB1R (1 μM) was mixed with G protein (1 μM) in 20 mM HEPES, pH 7.5, 50 mM NaCl, 0.01% L-MNG/0.001% CHS, 100 μM TCEP, 10 μM GDP and 10 μM GTP and incubated at room temperature. GTPase-Glo-reagent was added to the sample after incubation for 60 min (Gi1-3) and 20 min for (Go). Luminescence was measured after the addition of detection reagent and incubation for 10 min at room temperature using a SpectraMax Paradigm plate reader.

Chain of panel of 320 non-olfactory GPCRs (Homo sapiens, UniProt P61073) (P61073 whole entry): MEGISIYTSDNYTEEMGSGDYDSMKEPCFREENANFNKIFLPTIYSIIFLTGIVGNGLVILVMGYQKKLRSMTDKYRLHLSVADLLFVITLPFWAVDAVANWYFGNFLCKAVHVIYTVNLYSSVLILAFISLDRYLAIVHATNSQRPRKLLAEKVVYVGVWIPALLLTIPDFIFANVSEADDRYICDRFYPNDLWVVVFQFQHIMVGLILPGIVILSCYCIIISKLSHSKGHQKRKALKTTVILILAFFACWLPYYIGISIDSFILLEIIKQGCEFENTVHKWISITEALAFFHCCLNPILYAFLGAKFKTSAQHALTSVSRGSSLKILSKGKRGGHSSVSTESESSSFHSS
Chain of panel of 320 non-olfactory GPCRs (Homo sapiens, UniProt P28335, I156V/I160V/N158G) (P28335 33-458 I156V/N158G/I160V): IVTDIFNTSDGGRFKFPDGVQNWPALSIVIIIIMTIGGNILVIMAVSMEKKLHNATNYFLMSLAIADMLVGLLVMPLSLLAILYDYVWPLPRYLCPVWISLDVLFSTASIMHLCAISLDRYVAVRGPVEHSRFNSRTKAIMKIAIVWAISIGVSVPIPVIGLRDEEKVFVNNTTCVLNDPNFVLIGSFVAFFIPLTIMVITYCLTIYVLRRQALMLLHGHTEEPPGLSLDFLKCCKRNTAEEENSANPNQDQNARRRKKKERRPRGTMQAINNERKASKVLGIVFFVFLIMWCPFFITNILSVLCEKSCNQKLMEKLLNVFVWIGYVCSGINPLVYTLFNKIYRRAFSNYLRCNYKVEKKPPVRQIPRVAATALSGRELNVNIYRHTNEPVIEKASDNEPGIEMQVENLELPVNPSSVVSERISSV
Chain of panel of 320 non-olfactory GPCRs (Homo sapiens, UniProt Q9Y653) (Q9Y653 26-693): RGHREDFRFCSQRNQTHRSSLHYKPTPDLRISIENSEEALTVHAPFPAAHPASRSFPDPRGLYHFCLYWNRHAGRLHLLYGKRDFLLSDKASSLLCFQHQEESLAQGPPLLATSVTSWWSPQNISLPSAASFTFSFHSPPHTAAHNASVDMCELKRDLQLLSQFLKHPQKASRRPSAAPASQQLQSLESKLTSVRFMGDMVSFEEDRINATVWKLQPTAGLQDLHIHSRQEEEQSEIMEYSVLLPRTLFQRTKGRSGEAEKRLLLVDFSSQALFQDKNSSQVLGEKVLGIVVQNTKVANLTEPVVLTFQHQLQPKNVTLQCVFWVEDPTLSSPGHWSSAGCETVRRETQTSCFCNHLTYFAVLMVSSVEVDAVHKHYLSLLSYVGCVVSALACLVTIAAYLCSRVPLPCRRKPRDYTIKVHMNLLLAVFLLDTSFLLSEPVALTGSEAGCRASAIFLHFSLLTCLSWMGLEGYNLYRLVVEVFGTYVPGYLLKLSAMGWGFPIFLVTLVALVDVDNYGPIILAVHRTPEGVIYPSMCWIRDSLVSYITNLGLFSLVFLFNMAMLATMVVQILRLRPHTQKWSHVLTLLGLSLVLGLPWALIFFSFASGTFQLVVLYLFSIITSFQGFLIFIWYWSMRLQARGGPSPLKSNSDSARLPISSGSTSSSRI
Chain of panel of 320 non-olfactory GPCRs (Homo sapiens, UniProt P08172) (P08172 whole entry): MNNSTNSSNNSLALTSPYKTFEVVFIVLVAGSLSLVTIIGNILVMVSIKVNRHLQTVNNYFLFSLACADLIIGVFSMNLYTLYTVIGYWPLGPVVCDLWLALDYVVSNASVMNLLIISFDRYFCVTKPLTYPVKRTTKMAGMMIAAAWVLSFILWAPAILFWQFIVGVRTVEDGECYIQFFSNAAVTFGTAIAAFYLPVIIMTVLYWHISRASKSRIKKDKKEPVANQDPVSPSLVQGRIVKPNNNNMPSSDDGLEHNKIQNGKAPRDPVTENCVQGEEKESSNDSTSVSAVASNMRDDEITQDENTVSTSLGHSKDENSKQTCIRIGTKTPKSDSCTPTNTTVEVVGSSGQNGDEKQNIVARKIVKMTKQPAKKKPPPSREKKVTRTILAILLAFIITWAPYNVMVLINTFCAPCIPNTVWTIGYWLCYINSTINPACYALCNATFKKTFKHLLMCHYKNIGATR
Chain of panel of 320 non-olfactory GPCRs (Homo sapiens, UniProt Q8TDV2) (Q8TDV2 whole entry): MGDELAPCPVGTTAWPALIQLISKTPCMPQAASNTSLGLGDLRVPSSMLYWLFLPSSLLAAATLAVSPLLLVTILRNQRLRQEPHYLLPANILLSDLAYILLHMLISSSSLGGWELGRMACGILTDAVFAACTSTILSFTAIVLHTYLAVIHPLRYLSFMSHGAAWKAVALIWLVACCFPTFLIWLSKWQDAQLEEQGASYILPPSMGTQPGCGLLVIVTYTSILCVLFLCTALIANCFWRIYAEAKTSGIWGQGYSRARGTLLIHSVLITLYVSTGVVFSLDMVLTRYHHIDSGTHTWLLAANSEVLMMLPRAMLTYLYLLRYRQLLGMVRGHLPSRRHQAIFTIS
Chain of panel of 320 non-olfactory GPCRs (Homo sapiens, UniProt Q9BZJ8) (Q9BZJ8 whole entry): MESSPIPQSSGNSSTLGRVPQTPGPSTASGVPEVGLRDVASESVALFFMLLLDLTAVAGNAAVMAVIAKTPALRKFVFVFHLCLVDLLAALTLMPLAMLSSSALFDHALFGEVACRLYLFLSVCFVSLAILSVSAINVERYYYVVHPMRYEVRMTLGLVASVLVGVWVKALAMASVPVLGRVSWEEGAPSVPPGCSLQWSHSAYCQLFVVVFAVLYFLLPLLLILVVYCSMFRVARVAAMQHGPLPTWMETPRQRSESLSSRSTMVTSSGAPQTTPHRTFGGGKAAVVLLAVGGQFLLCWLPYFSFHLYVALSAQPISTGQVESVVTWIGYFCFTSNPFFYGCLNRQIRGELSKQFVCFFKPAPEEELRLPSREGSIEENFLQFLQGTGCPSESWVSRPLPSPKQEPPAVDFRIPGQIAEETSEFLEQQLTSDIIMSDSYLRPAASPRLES
Chain of hCB2 (P34972 whole entry): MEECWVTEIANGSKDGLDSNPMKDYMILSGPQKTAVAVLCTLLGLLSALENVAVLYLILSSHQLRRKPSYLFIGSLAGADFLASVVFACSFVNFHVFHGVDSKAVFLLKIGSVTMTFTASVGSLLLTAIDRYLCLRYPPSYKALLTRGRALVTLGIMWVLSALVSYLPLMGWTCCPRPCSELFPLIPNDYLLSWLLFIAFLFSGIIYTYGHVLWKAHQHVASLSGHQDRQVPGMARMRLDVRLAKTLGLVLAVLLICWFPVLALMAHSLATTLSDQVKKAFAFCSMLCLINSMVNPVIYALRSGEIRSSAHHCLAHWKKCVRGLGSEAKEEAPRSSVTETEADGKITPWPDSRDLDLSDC
Chain of panel of 320 non-olfactory GPCRs (Homo sapiens, UniProt P47901) (P47901 whole entry): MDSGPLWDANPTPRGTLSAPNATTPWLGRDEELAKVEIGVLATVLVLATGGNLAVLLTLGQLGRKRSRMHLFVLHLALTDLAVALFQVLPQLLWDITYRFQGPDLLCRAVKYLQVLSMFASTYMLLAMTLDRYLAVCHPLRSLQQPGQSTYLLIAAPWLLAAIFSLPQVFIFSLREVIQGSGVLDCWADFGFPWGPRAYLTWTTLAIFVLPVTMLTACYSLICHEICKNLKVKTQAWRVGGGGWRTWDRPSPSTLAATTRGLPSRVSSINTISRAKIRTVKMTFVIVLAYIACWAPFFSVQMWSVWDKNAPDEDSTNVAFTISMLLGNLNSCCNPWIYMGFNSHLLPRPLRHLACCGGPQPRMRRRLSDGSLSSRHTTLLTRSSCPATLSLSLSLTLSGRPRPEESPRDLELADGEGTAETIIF
Chain of panel of 320 non-olfactory GPCRs (Homo sapiens, UniProt Q9P296) (Q9P296 whole entry): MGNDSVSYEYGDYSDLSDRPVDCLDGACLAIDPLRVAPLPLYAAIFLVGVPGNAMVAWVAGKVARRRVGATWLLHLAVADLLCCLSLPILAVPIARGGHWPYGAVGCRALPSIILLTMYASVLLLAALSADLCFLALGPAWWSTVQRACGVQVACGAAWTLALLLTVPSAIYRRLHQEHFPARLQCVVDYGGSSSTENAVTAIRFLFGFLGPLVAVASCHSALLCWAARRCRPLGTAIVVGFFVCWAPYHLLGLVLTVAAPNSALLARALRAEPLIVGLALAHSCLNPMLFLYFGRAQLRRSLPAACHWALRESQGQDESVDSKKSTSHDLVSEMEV
Chain of panel of 320 non-olfactory GPCRs (Homo sapiens, UniProt P25089) (P25089 whole entry): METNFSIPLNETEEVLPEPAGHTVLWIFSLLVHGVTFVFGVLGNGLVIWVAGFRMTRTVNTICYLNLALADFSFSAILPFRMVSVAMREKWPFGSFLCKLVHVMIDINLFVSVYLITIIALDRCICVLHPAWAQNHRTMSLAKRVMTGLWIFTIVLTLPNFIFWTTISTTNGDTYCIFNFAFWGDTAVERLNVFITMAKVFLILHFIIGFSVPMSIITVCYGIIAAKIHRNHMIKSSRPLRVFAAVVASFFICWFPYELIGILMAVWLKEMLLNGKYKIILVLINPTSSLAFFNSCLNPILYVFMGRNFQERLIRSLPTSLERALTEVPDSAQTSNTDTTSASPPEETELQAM
T1 sequence (P21554 whole entry): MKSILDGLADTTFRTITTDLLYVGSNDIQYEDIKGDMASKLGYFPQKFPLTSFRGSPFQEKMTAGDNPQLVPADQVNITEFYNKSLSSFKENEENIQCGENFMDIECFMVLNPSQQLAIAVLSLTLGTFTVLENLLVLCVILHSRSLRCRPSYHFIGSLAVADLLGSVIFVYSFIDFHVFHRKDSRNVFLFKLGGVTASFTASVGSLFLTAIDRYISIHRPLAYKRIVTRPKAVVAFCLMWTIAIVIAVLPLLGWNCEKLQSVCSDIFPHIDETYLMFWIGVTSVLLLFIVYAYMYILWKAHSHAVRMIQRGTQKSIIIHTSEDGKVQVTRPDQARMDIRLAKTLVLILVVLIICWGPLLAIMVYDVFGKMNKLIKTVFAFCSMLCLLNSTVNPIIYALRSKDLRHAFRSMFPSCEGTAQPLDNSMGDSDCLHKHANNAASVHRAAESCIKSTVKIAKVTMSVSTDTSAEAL
Chain of hCB1 (P21554 whole entry): as above

## Cc1cc(C(=O)NC(C)(c2ccco2)c2ccco2)nn1-c1cccc(C(F)(F)F)c1 [‘4936]
[1]
  Fold of Basal RLU: 0.8 fold and 0.9 fold and 0.7 fold and 0.6 fold
[2]
  Fold of Basal RLU: 0.7 and 1.1 and 1 and 0.6
[3]
  Fold of Basal RLU: 1.2 fold and 1.3 fold and 1.8 fold
[4]
  Fold of Basal RLU: 1.1 fold and 1.5 fold and 1.8 fold
[5]
  Fold of Basal RLU: 0.8 fold and 1 fold and 1.3 fold
[6]
  Fold of Basal RLU: 0.7 and 1
[7]
  Fold of Basal RLU: 1 fold and 1.5 fold and 1.8 fold
[8]
  Fold of Basal RLU: 0.6 and 0.4 and 0.5
[9]
  Fold of Basal RLU: 1 fold and 1.3 fold and 1.2 fold
[10]
  Fold of Basal RLU: 1.1 fold and 1 fold
[11]
  Fold of Basal RLU: 1.1 fold and 1 fold
[12]
  Fold of Basal RLU: 1 and 0.6 and 1.2
[13]
  Fold of Basal RLU: 1 and 1.1 and 1.3
[14]
  Fold of Basal RLU: 0.9 and 0.8 and 1 and 1.1
[15]
  Fold of Basal RLU: 0.9 fold and 1 fold and 1.1 fold
[16]
  Fold of Basal RLU: 2.1 fold and 1.6 fold and 1.2 fold and 1.1 fold
Mice [17]; 0.2 mg/kg dose
  catalepsy (Figure6c), individual animals: 0.9 and 0.7 and 0.8 (2×) and 0.4
Mice [17]; 0.5 mg/kg dose
  catalepsy (Figure6c), individual animals: 0.6 (3×) and 0.8 and 0.9
Mice [17]; 1 mg/kg dose
  catalepsy (Figure6c), individual animals: 0.7 and 0.6 and 1.2 and 1.1 (2×)
Mice [17]; i.p., ‘1350 at 0.2 or 0.5 mg/kg, haloperidol 1.0 mg/kg
  catalepsy, latency to move all four paws: does not induce catalepsy at any tested dose up to 1 mg/kg
Mice [18]; Figure 6e, vs rotarod
  therapeutic window, Acetone: 10
  therapeutic window, Hot Plate: 4
Mice [18]; Figure 6f
  therapeutic window, analgesia vs catalepsy: greater than 5
hCB1
  Ki: 3.98 nM
hCB1; M = -5.643, replicate columns
  radioligand binding, competition curve point (normalized): -14.5136 and 0.4673
hCB1; M = -6.357, replicate columns
  radioligand binding, competition curve point (normalized): -3.19 and 6.075
hCB1; M = -7.07, replicate columns
  radioligand binding, competition curve point (normalized): 20.4147 and 9.813
hCB1; M = -7.783, replicate columns
  radioligand binding, competition curve point (normalized): 36.2041 and 27.8816
hCB1; M = -8.496, replicate columns
  radioligand binding, competition curve point (normalized): 40.1914 and 64.2523
hCB1; M = -9.21, replicate columns
  radioligand binding, competition curve point (normalized): 71.0526 and 82.243
hCB1; M = -9.923, replicate columns
  radioligand binding, competition curve point (normalized): 77.9904 and 73.053
hCB1; M = -10.636, replicate columns
  radioligand binding, competition curve point (normalized): 83.8915 and 104.439
hCB2; M = -6.64345
  radioligand binding, competition curve point (normalized): 0.8301 and 3.196
hCB2; M = -7.35666
  radioligand binding, competition curve point (normalized): 5.0447 and 7.642
hCB2; M = -8.06987
  radioligand binding, competition curve point (normalized): 20.2107 and 22.6869
hCB2; M = -8.78308
  radioligand binding, competition curve point (normalized): 55.4917 and 61.8361
hCB2; M = -9.49629
  radioligand binding, competition curve point (normalized): 84.5147 and 77.217
hCB2; M = -10.2095
  radioligand binding, competition curve point (normalized): 91.2197 and 92.4778
hCB2; M = -10.9227
  radioligand binding, competition curve point (normalized): 85.5045 and 95.2415
hCB2; M = -11.6359
  radioligand binding, competition curve point (normalized): 108.381 and 91.8049

## COC(=O)[C@](C)(NC(=O)c1cc(C)n(-c2cccc(C(F)(F)F)c2)n1)c1cccs1 [‘8690]
[19]; Gi2
  GTP turnover, normalised (FUB about 100): 16.9643 and 39.0749 and 37.2739 and 44.0104 and 47.8141 and 43.1917
[19]; Gi3
  GTP turnover, normalised (FUB about 100): 40.931 and 39.8765 and 45.2237 and 46.1547 and 48.6065 and 44.9238
[19]; Goa
  GTP turnover, normalised (FUB about 100): 61.5575 and 70.4664 and 69.7244 and 64.4739 and 72.6259 and 67.4132
[19]; first block, G protein not printed (Gi2, Gi3, Goa follow)
  GTP turnover, normalised (FUB about 100): 38.198 and 43.143 and 41.7234 and 41.9514 and 39.8163 and 42.5776
